In patent publication US9061010B2, “Methods of treating a Flaviviridae family viral infection and compositions for treating a Flaviviridae family viral infection” (The Board of Trustees of the Leland Stanford Junior …, priority 2007, dated 2015):
Entries after “also recorded” stand apart in the source; their conditions may differ.

Columns and labels:
[1] = target: T1, W55R NS4B mutant binding to HCV RNA (Hepatitis C virus genotype 1a, UniProt P27958, A1893V/D1840G/F1898S/L1839I/R1905H/S1900A/W1766R); assay: Microfluidic in vitro RNA binding assay, W55R NS4B mutant; conditions: 10 nM clemizole
T1 construct: made in house; host or cells: coupled transcription/translation rabbit reticulocyte system (Promega) with canine microsomal membranes
Excerpt: This mutation was also introduced into the NS4B-GFP vector and the resulting vector tested for its RNA binding activity using the in vitro microfluidic assay of the invention.
The plasmid pcDNA-NS4B-GFP encoding NS4B of genotype 1a fused in frame with a C-terminal GFP was previously described^5. The mutations RRa, RRb and W55R were introduced into this plasmid by site-directed mutagenesis (using the QuikChange kit (Stratagene)). The plasmid NS5A(AH)GFP was constructed as previously reported. Gus-his vector was obtained from Roche.

W55R mutant J6/JFH RNA = assay: Luciferase reporter-linked replication assay, W55R mutant; type: cell-based, Hepatitis C Virus; conditions: 10 μM clemizole; whole cell RNA or in vitro-transcribed RNA
Excerpt: Two of the clemizole-resistant NS4B mutants were characterized in detail. The first, W55R is depicted in FIG. 9a. It involves the substitution of an arginine for the tryptophan at amino acid 55 within a predicted cytoplasmically-oriented segment of NS4B. This mutation is sufficient to confer a clemizole-resistant phenotype in cells: Huh7.5 cells transfected with either whole cell RNA extracted from the W55R mutant cells (FIG. 9b) or with in vitro-transcribed J6/JFH RNA encoding this point mutation and a linked luciferase reporter gene (FIG. 9c) were unaffected by 10 μM clemizole.
The plasmid FL-J6/JFH-5′C19Rluc2AUbi that consists of the full-length HCV genome and expresses Renilla luciferase was a gift from Dr. Charles M. Rice^28. The W55R mutation was introduced into this plasmid by site-directed mutagenesis (using the QuikChange kit (Stratagene)).
(§1) Medium was changed daily.
Whole cell RNA was extracted from clemizole-resistant replicon clones and from untreated replicon cells using TRIzol reagent (Invitrogen). Equal amounts of whole cell RNA (50 μg) were electroporated into Huh7.5 cells as described above. Cells were grown under G418 selection in the presence or absence of clemizole for 3 weeks. The number of colonies was determined using Image J (NIH) following fixation and staining with Crystal violet.

[2] = cited from earlier work
HCV (genotype 4) = assay: Treatment of patients chronically infected with HCV, serum HCV viral load; type: in vivo, human
Protocol: Three patients chronically-infected with HCV (genotype 4) were treated in accordance with an embodiment of the method of the invention. All were male and had baseline ALT elevations and significant HCV viral loads ranging from 290,000-730,000 IU/ml.
After the first four weeks of clemizole monotherapy, pegylated interferon (180 micrograms Pegasus (Roche) s.q. per week) was added.

[3] = system: HCV RNA replication (full-length luciferase reporter-linked HCV genome); assay: Luciferase reporter-linked HCV replication assay in Huh7.5 cells; type: cell-based, Hepatitis C Virus
Protocol: For example, HCV replication assays employing a luciferase reporter-linked HCV genome in the presence of various combinations of clemizole and an NS3 protease inhibitor (SCH503034) are shown in FIGS. 1A and 1B. In such assays, luciferase activity is directly proportional to HCV RNA genome replication. […] The results can be plotted on a linear or log scale as a function of drug concentrations to generate replication inhibition curves.
Luciferase assays were performed at 72 hr.
as §1
The experiment was repeated four times, each time with triplicates.

[4] = target: HCV NS4B binding to the 3′ terminus of the HCV negative strand RNA (Hepatitis C virus genotype 1a, UniProt P27958); assay: Microfluidic (MITOMI) in vitro RNA binding assay of NS4B; conditions: 10 nM clemizole
[5] = cited from earlier work; remark: listed apart in the source
Huh7.5 cells = assay: Alamar Blue viability assay; conditions: HCV-infected Huh7.5 cells, 72 hours, FIG. 15
Protocol: Huh-7.5 cells were maintained in Dulbecco's modified minimal essential medium (Gibco) supplemented with 1% L-glutamine (Gibco), 1% penicillin, 1% streptomycin (Gibco), 1× nonessential amino acids (Gibco) and 10% fetal bovine serum (Omega Scientific). Cell lines were passaged twice weekly after treatment with 0.05% trypsin-0.02% EDTA and seeding at a dilution of 1:5. Subconfluent Huh-7.5 cells were trypsinized and collected by centrifugation at 700 g for 5 min. The cells were then washed three times in ice-cold RNase-free PBS (BioWhittaker) and resuspended at 1.5*10^7 cells/ml in PBS. Wild type or mutant FL-J6/JFH-5′C19Rluc2AUbi RNA for electroporation was generated by in vitro transcription of XbaI-linearized DNA templates using the T7 MEGAscript kit (Ambion), followed by purification, essentially as described above (In vitro RNA transcription and fluorescent labeling). 5 μg of RNA was mixed with 400 μl of washed Huh-7.5 cells in a 2 mm-gap cuvette (BTX) and immediately pulsed (0.82 kV, five 99 μs pulses) with a BTX-830 electroporator. After a 10 min recovery at 25° C., pulsed cells were diluted into 10 ml of prewarmed growth medium. Cells from several electroporations were pooled to a common a stock and seeded in 6 well plates (5*10^5 cells per well). After 24 hr, medium was replaced and cells were grown in the presence of serial dilutions of the various inhibitory compounds (Sigma) identified in the screen. […] Untreated cells were used as a negative control for water soluble compounds. For compounds solubilized in DMSO, untreated cells were grown in the presence of corresponding concentrations of the solvent as a negative control. Medium was changed daily. After 72 hr of treatment, cells were subjected to an alamar blue based viability assay and luciferase assay.
Following 72 hrs of treatment, cells were incubated for 3 hrs at 37° C. in the presence of 10% Alamar Blue reagent (TREK Diagnostic Systems).

HuR protein = target: T2, HuR protein (Homo sapiens, UniProt Q15717); assay: Microfluidic RNA binding assay of HuR (specificity of hits); conditions: 0.1 mM
T2 construct: made in house; […]
Excerpt: For each experiment, an image was taken after MITOMI and the final PBS wash. This was used to determine the concentration of surface bound protein (FITC channel) as well as surface bound target RNA (Cy3 channel). […] Data from multiple data points were averaged, and their standard deviations calculated. Results were then normalized to 1. Between 10-20 replicates were included for each probe tested. A control protein, Gus-his (Roche) was included in each experiment and subjected to the same analysis. When present, detected signal with Gus-his was used for background subtraction.
Specificity of hits identified in the small molecule screen: To determine the specificity of the hits identified in the small molecule screen, the HuR protein (one of the human RNA binding protein used to validate our RNA binding assay) was selected. […] Binding of HuR to the consensus 4A RNA sequence was tested in the presence of the inhibitory molecules shown to inhibit RNA binding by NS4B. […] Similarly, 0.1 mM of the identified compounds didn't have an inhibitory effect on binding of HuR to the 3′ terminus of the negative HCV RNA strand.

Question: With `Clc1ccc(Cn2c(CN3CCCC3)nc3ccccc32)cc1` [clemizole] as the molecule, how does the “reduction of RNA binding, W55R mutant NS4B” value [1] read?
Answer: ~2 fold

Question: And the “replication of W55R mutant in presence of clemizole” value (W55R mutant J6/JFH RNA)?
Answer: unaffected

Question: And the “drowsiness, share of patients treated” value ([2]; Zierz and Greither)?
Answer: 1.3%

Question: What about the patients with drowsiness ([2]; human, in vivo) of the same molecule?
Answer: 2 of the 104 patients

Question: And the “subjects who responded to treatment” value ([2]; various dosage forms)?
Answer: 92 of the 104 subjects

Question: And the “HCV viral load after clemizole monotherapy” value (HCV (genotype 4); 100 mg po BID, week 4, 3 patients)?
Answer: nearly at or below the limit of HCV detection; also recorded: completely, or nearly, undetectable

Question: And the “HCV viral load after clemizole monotherapy plus clemizole with pegylated interferon” value (HCV (genotype 4); 4 weeks monotherapy plus 4 weeks clemizole-standard dose pegylated interferon)?
Answer: below the limit of detection

Question: And the “difference between IC50 for in vitro RNA binding and EC50 for antiviral effect in cells” value [3]?
Answer: ~400 fold

Question: And the “effect of adding clemizole to SCH503034 on inhibition of HCV replication” value ([3]; SCH503034 1-5 micromolar, 72 hours, FIGS. 1A and 1B)?
Answer: increase the inhibition of HCV replication in a dose-dependent manner by up to several logs

Question: What about the “reduction of RNA binding, wild type NS4B” value [4] of the same molecule?
Answer: ~2 fold

Question: And the “patients reporting excellent relief of itching” value ([5]; 40 to 160 mg/day)?
Answer: 66%

Question: And the “patients reporting good relief of itching” value ([5]; 40 to 160 mg/day)?
Answer: 23%

Question: What about the “patients with mild side effects” value ([5]; drowsiness most common) of the same molecule?
Answer: 4 patients

Question: What about the “toxicity to the cell in the real-time PCR experiment” value (Huh7.5 cells) of the same molecule?
Answer: no measurable toxicity to the cell

Question: What about the “inhibitory effect on binding of HuR to the consensus 4A RNA sequence” value (HuR protein) of the same molecule?
Answer: No inhibitory effect
